{
  "source": "patent US9850283B2",
  "about": "“Macrocyclic inhibitors of the PD-1/PD-L1 and CD80(B7-1)/PD-L1 protein/protein interactions” (BRISTOL-MYERS SQUIBB COMPANY, priority 2013, dated 2017)",
  "key": {"[1]": {"target": "T1, Human PD-L1/PD-1 (Homo sapiens, UniProt Q9NZQ7)", "T1 construct": "made in house; host or cells: HEK293T", "T1 sequence (Q9NZQ7 with tags, fused parts or gaps)": "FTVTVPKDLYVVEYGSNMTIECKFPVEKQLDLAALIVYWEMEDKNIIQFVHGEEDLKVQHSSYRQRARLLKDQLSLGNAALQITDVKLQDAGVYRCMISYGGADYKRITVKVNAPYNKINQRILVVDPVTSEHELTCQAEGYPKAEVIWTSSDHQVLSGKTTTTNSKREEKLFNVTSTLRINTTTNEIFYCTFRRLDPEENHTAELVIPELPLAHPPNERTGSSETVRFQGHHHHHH", "experiment": "HTRF PD-1-Ig/PD-L1-His binding assay (human PD-L1)", "settings": "read-out: HTRF Human PD-L1/PD-1 Binding Assay IC50", "how_it_was_run": "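HTRF read-out: Eu cryptate anti-Ig mAb 1 nM final, APC anti-His mAb 20 nM final, added over the binding reaction. Proteins were PD-1-Ig and PD-L1-His ectodomain fusions. Buffer was dPBS, 0.1% BSA, 0.05% Tween-20.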"}, "[2]": {"target": "Hu PD-L1/PD-1 (Homo sapiens, UniProt Q9NZQ7)", "sequence (Q9NZQ7 19-290)": "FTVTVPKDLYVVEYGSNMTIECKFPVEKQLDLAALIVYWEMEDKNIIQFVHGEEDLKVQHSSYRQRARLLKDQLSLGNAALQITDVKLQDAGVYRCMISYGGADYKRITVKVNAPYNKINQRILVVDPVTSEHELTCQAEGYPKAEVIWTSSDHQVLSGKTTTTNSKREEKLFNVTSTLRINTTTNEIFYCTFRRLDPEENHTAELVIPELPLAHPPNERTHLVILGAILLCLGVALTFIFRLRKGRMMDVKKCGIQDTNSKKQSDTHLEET", "experiment": "Cell binding assay Hu PD-L1/PD-1 (Tables 11-13, cell line not given)", "type": "cell-based", "experimental": "The ability of the macrocyclic peptides of the present disclosure to bind to Jurkat, mouse B cell line (LK35.2), and a human lung adenocarcinoma cell line (L2987) was investigated. Jurkat-PD-1 Cell Binding Assay. Phycoerythrin (PE) was covalently linked to the Ig epitope tag of human PD-L1-Ig and fluorescently-labeled PD-L1-Ig was used for binding studies with a Jurkat cell line over-expressing human PD-1 (Jurkat-PD-1). […] Cells were washed 3× in dPBS. Cells were resuspended in 200 μl of dPBS and binding was measured by flow cytometry. LK35.2-hPD-L1 Cell Binding Assay. Phycoerythrin (PE) was covalently linked to the Ig eptitope tag of human PD-1-Ig and fluorescently-labeled PD-1-Ig was used for binding studies with a mouse B cell line (LK35.2) stably over-expressing human PD-L1 (LK35.2-hPD-L1). Briefly, […] LK35.2-hPD-L1 cells were pre-incubated with inhibitor for 15 m in a 30 μl volume of RPMI supplemented with 2% fetal calf serum. 20 μl of PE-labeled PD-1-Ig (2 nM final), diluted in RPMI supplemented with 2% fetal calf serum, was dispensed on top of cells and inhibitor and binding was allowed to take place for 1 h at room temperature. Cells were washed 3× in dPBS. Cells were resuspended in 200 μl of dPBS and binding was measured by flow cytometry. L2987 Cellomics Cell Binding Assay. Phycoerythrin (PE) was covalently linked to the Ig eptitope tag of human PD-1-Ig and fluorescently-labeled PD-1-Ig was used for binding studies with a human lung adenocarcinoma cell line (L2987) which naturally expresses PD-L1. […] The following day, inhibitors were diluted in serum-free DMEM and 25 μl was dispensed on top of cells. […] Samples were incubated for 1 h at 37° C. followed by 2 washes in dPBS and fixation for 30 m with 4% paraformaldehyde. Samples were further washed 2× in dPBS. Hoechst (final 1 μg/ml) was added to final wash to stain nuclei. Plates were processed using a Cellomics […]®."}, "[3]": {"settings": "Table 8, Compound No. 1 variant macrocyclic peptides"}, "[4]": {"settings": "Table 9, Compound No. 71 variant macrocyclic peptides"}, "[5]": {"settings": "Table 13, Compound No. 71 series"}},
  "note": "pIC50: −log10 of the molar value. Where two headings read alike, the source gives them in different places. Positions of bridges follow the written chain, without caps; N, C: chain ends. Non-standard residues stand in square brackets, D forms with d. Residues, ends and D or L forms follow the SMILES beside them. ξ: configuration not given here. Phe(4-Cl) = N[C@@H](Cc1ccc(Cl)cc1)C(=O)O; 1Nal = N[C@@H](Cc1cccc2ccccc12)C(=O)O; NMeF = CN[C@@H](Cc1ccccc1)C(=O)O; 3Thi = N[C@@H](Cc1ccsc1)C(=O)O; NMeNle = CCCC[C@H](NC)C(=O)O; ξY = NC(Cc1ccc(O)cc1)C(=O)O; NMeA = CN[C@@H](C)C(=O)O; ξNMeA = CNC(C)C(=O)O; ξC = NC(CS)C(=O)O; Sar = CNCC(=O)O",
  "data": [
    {"molecule": "CCCC[C@H]1C(=O)N(C)[C@@H](CCCC)C(=O)N[C@@H](CCCNC(=N)N)C(=O)N[C@@H](C(=O)NCC(N)=O)CSCC(=O)N[C@@H](Cc2cccc3ccccc23)C(=O)N(C)[C@@H](C)C(=O)N[C@@H](CC(N)=O)C(=O)N2CCC[C@H]2C(=O)N[C@@H](Cc2cnc[nH]2)C(=O)N[C@@H](CC(C)C)C(=O)N(C)CC(=O)N[C@@H](Cc2c[nH]c3ccccc23)C(=O)N[C@@H](CO)C(=O)N[C@@H](Cc2c[nH]c3ccccc23)C(=O)N1C", "note": "[Compound No. 27] ({CH2CO}-[1Nal][NMeA]NPHL[Sar]WSW[NMeNle][NMeNle]R[dC]G-NH2; thioether N-14)", "values": [
      {"measurement": "pIC50", "setting": "[1]; [3]", "result": 7.70},
      {"measurement": "pIC50", "setting": "[2]", "result": 7.55}
    ]},
    {"molecule": "CCCC[C@H]1C(=O)N(C)[C@@H](CCCC)C(=O)N[C@@H](CCCNC(=N)N)C(=O)N[C@H](C(=O)NCC(N)=O)CSCC(=O)N[C@@H](Cc2ccc(O)cc2)C(=O)N(C)[C@@H](C)C(=O)N[C@@H](CC(N)=O)C(=O)N2CCC[C@H]2C(=O)N[C@@H](Cc2cnc[nH]2)C(=O)N[C@@H](CC(C)C)C(=O)N(C)CC(=O)N[C@@H](Cc2c[nH]c3ccccc23)C(=O)N[C@@H](CO)C(=O)N[C@@H](Cc2c[nH]c3ccccc23)C(=O)N1C", "note": "[Compound No. 30]", "values": [
      {"measurement": "pIC50", "setting": "[1]; [3]", "result": 8.30},
      {"measurement": "pIC50", "setting": "[2]", "result": 8.52}
    ]},
    {"molecule": "CCCC[C@H]1C(=O)N(C)[C@@H](CCCC)C(=O)N[C@@H](CCCNC(=N)N)C(=O)N[C@H](C(=O)NCC(N)=O)CSCC(=O)N[C@@H](Cc2ccc(Cl)cc2)C(=O)N(C)[C@@H](C)C(=O)N[C@@H](CC(N)=O)C(=O)N2CCC[C@H]2C(=O)N[C@@H](Cc2cnc[nH]2)C(=O)N[C@@H](CC(C)C)C(=O)N(C)CC(=O)N[C@@H](Cc2c[nH]c3ccccc23)C(=O)N[C@@H](CO)C(=O)N[C@@H](Cc2c[nH]c3ccccc23)C(=O)N1C", "note": "[Compound No. 33] ({CH2CO}-[Phe(4-Cl)][NMeA]NPHL[Sar]WSW[NMeNle][NMeNle]RCG-NH2; thioether N-14)", "values": [
      {"measurement": "pIC50", "setting": "[1]; [3]", "result": 8.05},
      {"measurement": "pIC50", "setting": "[2]", "result": 8.15}
    ]},
    {"molecule": "CCCC[C@H]1C(=O)N(C)[C@@H](CCCC)C(=O)N[C@@H](CCCNC(=N)N)C(=O)NC(C(=O)NCC(N)=O)CSCC(=O)N[C@@H](Cc2ccsc2)C(=O)N(C)[C@@H](C)C(=O)N[C@@H](CC(N)=O)C(=O)N2CCC[C@H]2C(=O)N[C@@H](Cc2cnc[nH]2)C(=O)N[C@@H](CC(C)C)C(=O)N(C)CC(=O)N[C@@H](Cc2c[nH]c3ccccc23)C(=O)N[C@@H](CO)C(=O)N[C@@H](Cc2c[nH]c3ccccc23)C(=O)N1C", "note": "(stereo partly shown) [Compound No. 40] ({CH2CO}-[3Thi][NMeA]NPHL[Sar]WSW[NMeNle][NMeNle]R[ξC]G-NH2; thioether N-14)", "values": [
      {"measurement": "pIC50", "setting": "[1]; [3]", "result": 8.05},
      {"measurement": "pIC50", "setting": "[2]", "result": 7.70}
    ]},
    {"molecule": "CCCC[C@H]1C(=O)N(C)[C@@H](CCCC)C(=O)N[C@@H](CCCNC(=N)N)C(=O)N[C@H](C(=O)NCC(N)=O)CSCC(=O)N[C@@H](Cc2ccccc2)C(=O)N(C)[C@@H](C)C(=O)N[C@@H](CC(N)=O)C(=O)N2CCC[C@H]2C(=O)N[C@@H](Cc2c[nH]cn2)C(=O)N[C@@H](CC(C)C)C(=O)N[C@@H](CCN)C(=O)N[C@@H](Cc2c[nH]c3ccccc23)C(=O)N[C@@H](CO)C(=O)N[C@@H](Cc2c[nH]c3ccccc23)C(=O)N1C", "note": "[Compound No. 52]", "values": [
      {"measurement": "pIC50", "setting": "[1]; [3]", "result": 7.62},
      {"measurement": "pIC50", "setting": "[2]", "result": 6.97}
    ]},
    {"molecule": "CCCC[C@H]1C(=O)N(C)[C@@H](CCCC)C(=O)N[C@@H](CCCNC(=N)N)C(=O)N[C@H](C(=O)NCC(N)=O)CSCC(=O)N[C@@H](Cc2ccccc2)C(=O)N(C)C(C)C(=O)N[C@@H](CC(N)=O)C(=O)N2CCC[C@H]2C(=O)N[C@@H](Cc2cnc[nH]2)C(=O)N[C@@H](CC(C)C)C(=O)N[C@@H](Cc2cnc[nH]2)C(=O)N[C@@H](Cc2c[nH]c3ccccc23)C(=O)N[C@@H](CO)C(=O)N[C@@H](Cc2c[nH]c3ccccc23)C(=O)N1C", "note": "(stereo partly shown) [Compound No. 53] ({CH2CO}-F[ξNMeA]NPHLHWSW[NMeNle][NMeNle]RCG-NH2; thioether N-14)", "values": [
      {"measurement": "pIC50", "setting": "[1]; [3]", "result": 7.47},
      {"measurement": "pIC50", "setting": "[2]", "result": 7.33}
    ]},
    {"molecule": "CCCC[C@H]1C(=O)N(C)[C@@H](CCCC)C(=O)N[C@@H](CCCNC(=N)N)C(=O)N[C@H](C(=O)NCC(N)=O)CSCC(=O)N[C@@H](Cc2ccccc2)C(=O)N(C)[C@@H](C)C(=O)N[C@@H](CC(N)=O)C(=O)N2CCC[C@H]2C(=O)N[C@@H](Cc2cnc[nH]2)C(=O)N[C@@H](CC(C)C)C(=O)N2CCC[C@H]2C(=O)N[C@@H](Cc2c[nH]c3ccccc23)C(=O)N[C@@H](CO)C(=O)N[C@@H](Cc2c[nH]c3ccccc23)C(=O)N1C", "note": "[Compound No. 55] ({CH2CO}-F[NMeA]NPHLPWSW[NMeNle][NMeNle]RCG-NH2; thioether N-14)", "values": [
      {"measurement": "pIC50", "setting": "[1]; [3]", "result": 8.40},
      {"measurement": "pIC50", "setting": "[2]", "result": 8.52}
    ]},
    {"molecule": "CCCC[C@H]1C(=O)N(C)[C@@H](CCCC)C(=O)N[C@@H](CCCNC(=N)N)C(=O)N[C@H](C(=O)NCC(N)=O)CSCC(=O)N[C@@H](Cc2ccccc2)C(=O)N(C)[C@@H](C)C(=O)N[C@@H](CC(N)=O)C(=O)N2CCC[C@H]2C(=O)N[C@@H](Cc2cnc[nH]2)C(=O)N[C@@H](CC(C)C)C(=O)N(C)CC(=O)N[C@@H](Cc2c[nH]c3ccccc23)C(=O)N[C@H](CC(N)=O)C(=O)N[C@@H](Cc2c[nH]c3ccccc23)C(=O)N1C", "note": "[Compound No. 58] ({CH2CO}-F[NMeA]NPHL[Sar]W[dN]W[NMeNle][NMeNle]RCG-NH2; thioether N-14)", "values": [
      {"measurement": "pIC50", "setting": "[1]; [3]", "result": 5.05},
      {"measurement": "pIC50", "setting": "[2]", "result": "< 5.00"}
    ]},
    {"molecule": "CCCC[C@H]1C(=O)N(C)CC(=O)N[C@@H](CC(=O)O)C(=O)N[C@@H](C(C)C)C(=O)N(C)[C@@H](Cc2ccccc2)C(=O)N[C@@H](Cc2ccc(O)cc2)C(=O)N(C)CC(=O)N[C@@H](Cc2c[nH]c3ccccc23)C(=O)NC(Cc2ccc(O)cc2)C(=O)N[C@@H](CC(C)C)C(=O)N[C@H](C(=O)NCC(N)=O)CSCC(=O)N[C@@H](Cc2ccccc2)C(=O)N[C@@H](Cc2ccccc2)C(=O)N1C", "note": "(stereo partly shown) [Compound No. 74] ({CH2CO}-FF[NMeNle][Sar]DV[NMeF]Y[Sar]W[ξY]LCG-NH2; thioether N-13)", "values": [
      {"measurement": "pIC50", "setting": "[1]; [4]", "result": "< 5.00"},
      {"measurement": "pIC50", "setting": "[2]; [5]", "result": "< 5.00"}
    ]},
    {"molecule": "CCCC[C@@H]1NC(=O)[C@H](Cc2ccccc2)N(C)C(=O)[C@H](Cc2ccccc2)NC(=O)CSC[C@@H](C(=O)NCC(N)=O)NC(=O)[C@H](CC(C)C)NC(=O)[C@H](Cc2ccc(O)cc2)NC(=O)[C@H](Cc2c[nH]c3ccccc23)NC(=O)CN(C)C(=O)[C@H](Cc2ccc(O)cc2)NC(=O)[C@H](Cc2ccccc2)N(C)C(=O)[C@H](C(C)C)NC(=O)[C@H](CC(=O)O)NC(=O)CN(C)C1=O", "note": "[Compound No. 76] (HELM PEPTIDE1{[O=C(C[*:3])[*:2]].F.[meF].[Nle].[Sar].D.V.[meF].Y.[Sar].W.Y.L.C.G.[am]}$PEPTIDE1,PEPTIDE1,1:R3-14:R3$$$V2.0)", "values": [
      {"measurement": "pIC50", "setting": "[1]; [4]", "result": "< 5.00"},
      {"measurement": "pIC50", "setting": "[2]; [5]", "result": "< 5.00"}
    ]},
    {"molecule": "CCCC[C@H]1C(=O)N(C)[C@@H](C)C(=O)N[C@@H](CC(=O)O)C(=O)N[C@@H](C(C)C)C(=O)N(C)[C@@H](Cc2ccccc2)C(=O)N[C@@H](Cc2ccc(O)cc2)C(=O)N(C)CC(=O)N[C@@H](Cc2c[nH]c3ccccc23)C(=O)N[C@@H](Cc2ccc(O)cc2)C(=O)N[C@@H](CC(C)C)C(=O)N[C@H](C(=O)NCC(N)=O)CSCC(=O)N[C@@H](Cc2ccccc2)C(=O)N(C)[C@@H](Cc2ccccc2)C(=O)N1C", "note": "[Compound No. 77] (HELM PEPTIDE1{[O=C(C[*:3])[*:2]].F.[meF].[CCCC[C@@H](C(=O)[*:2])N(C)[*:1]].[meA].D.V.[meF].Y.[Sar].W.Y.L.C.G.[am]}$PEPTIDE1,PEPTIDE1,1:R3-14:R3$$$V2.0)", "values": [
      {"measurement": "pIC50", "setting": "[1]; [4]", "result": 7.62},
      {"measurement": "pIC50", "setting": "[2]; [5]", "result": 7.80}
    ]}
  ]
}
